In brackets after ≈: the same amount, converted by molar mass. Where only a bound is given, the exact number is not on record here.

The conditions of the series: buffer; pH 7.4; 200.0 µM.
`NC(=O)c1ccccc1N` gave a solubility (kinetic) greater than 20.4 µg/mL. The molecule `O=[N+]([O-])c1ccc(OCC2CC(c3ccccc3)=NO2)cc1` (configuration not stated) displayed a solubility (kinetic) of less than 0.3 µg/mL. With `O=C(NCc1cccnc1)C1CC(c2ccccc2O)=NO1` (configuration not stated), the kinetic solubility was greater than 44.6 µg/mL. In the case of `COc1ccc(CCNC(=O)COC(=O)Cc2ccccc2F)cc1` it was greater than 51.8 µg/mL; in that of `Cc1ccc(/C=N/NC(=O)c2ccc3nc[nH]c3c2)o1`, greater than 40.2 µg/mL; in that of `Cc1ccc(OCCNC(=O)CCc2nc3sc4c(c3c(=O)[nH]2)CCCC4)cc1`, 5.6 µg/mL (≈ 13.6 µM). For `CN(Cc1ccccc1)C(=O)c1ccco1`, the solubility (kinetic) stood at 30.3 µg/mL (≈ 141 µM).

`O=C(CN1CCCC1)Nc1ccc(Br)cc1[N+](=O)[O-]` came in with a kinetic solubility of 20.3 µg/mL (≈ 61.9 µM). For `Cc1cc(C)nc(N(C#N)Cc2cccc(Cl)c2)n1`, the kinetic solubility was 23.6 µg/mL (≈ 86.5 µM).

`COc1ccc(CCNCc2cccn2C)cc1OC.Cl` came in with a kinetic solubility greater than 46.6 µg/mL.

On to `CCCn1c(N)c(C(=O)COc2ccc(Br)cc2F)c(=O)n(C)c1=O`, for which the kinetic solubility is 3.9 µg/mL (≈ 9.42 µM). `O=C(NCCc1ccc(F)cc1)Nc1ccc([N+](=O)[O-])cc1`: the solubility (kinetic) was 4.9 µg/mL (≈ 16.2 µM).

In the case of `Cc1ccccc1/C=C/c1cccc[n+]1C.[I-]`, the solubility (kinetic) was greater than 50.6 µg/mL. Regarding `CC(C)CN1C(=O)c2ccc(NC(=O)Cc3ccccc3)cc2C1=O`, the kinetic solubility is less than 0.4 µg/mL. Take `O=C(COC(=O)c1cc(S(=O)(=O)N2CCOCC2)ccc1F)NC1CC1`: the kinetic solubility came to 55.1 µg/mL (≈ 143 µM). Consider `CCn1c(=O)c2c(nc3n2CCCN3Cc2ccccc2)n(C)c1=O`, for which the solubility (kinetic) was 13.7 µg/mL (≈ 40.4 µM). Turning to `O=C(Nc1ccc(CN2CCOCC2)cc1)c1ccc(F)cc1`, the kinetic solubility is greater than 47.2 µg/mL. In turn, `CCOC(=O)COn1c(=O)c(-c2ccc(F)cc2)[n+]([O-])c2ccccc21` showed a kinetic solubility of 3.8 µg/mL (≈ 10.6 µM). For `O=C(c1cc(-c2ccc(Cl)cc2Cl)on1)N1CCCC1` the value was 1.8 µg/mL (≈ 5.78 µM); for `O=C(O)[C@H](Cc1ccccc1)NC(=O)N1CCN(c2ccccc2)CC1`, 51.8 µg/mL (≈ 147 µM); for `CCN(CC(=O)NCc1cccs1)C(=O)Cc1ccc(C)c(C)c1`, greater than 51.7 µg/mL. With `CSc1ncc(Cl)c(C(=O)Nc2cccc(Cl)c2)n1`, the kinetic solubility was found to be 1.1 µg/mL (≈ 3.5 µM). In the case of `COc1ccc(C(CC(=O)O)N2C(=O)CCC2=O)cc1` (configuration not stated) it was greater than 41.6 µg/mL; in that of `CCN(C(=O)c1ccc(=O)n(C)n1)c1c(N)n(Cc2ccccc2)c(=O)[nH]c1=O`, greater than 59.5 µg/mL; in that of `CNC(=O)C(C)N1c2cccc3cccc(c23)S1(=O)=O` (configuration not stated), 34.6 µg/mL (≈ 119 µM). As for `CN1CCN(C(=O)c2cc3cc(F)ccc3[nH]2)CC1`, the kinetic solubility was greater than 39.2 µg/mL. In the case of `COc1ccc(NC(=O)c2cc(C)cc(C)c2)cc1[N+](=O)[O-]` it was less than 0.3 µg/mL; in that of `C#CCN1C(=O)S/C(=C\c2cc3c(cc2OC)OCO3)C1=O`, 1.1 µg/mL (≈ 3.47 µM); in that of `CCN(CC)CCOC(=O)c1ccc(Cl)cc1Cl.Cl`, greater than 49 µg/mL. For `Cc1ccc(C(=O)Nc2ccncc2)c(Cl)c1` the value was greater than 37 µg/mL; for `Cc1cc2cc(CNC(=O)Cc3ccc([N+](=O)[O-])cc3)ccc2n1C`, 0.3 µg/mL (≈ 0.889 µM); for `N#Cc1c(Nc2ccccc2Cl)s[nH]c1=O`, greater than 37.8 µg/mL.

`O=C(c1c[nH]c2ccccc12)N1CCN(c2ccccc2)CC1` had a solubility (kinetic) greater than 45.8 µg/mL. In turn, `O=C(Cc1ccccc1)Nc1ccc(NC(=O)c2ccco2)cc1` had a kinetic solubility of 4 µg/mL (≈ 12.5 µM). For the molecule `COc1ccc(CCC(=O)NC(C)C2CCCO2)cc1` (configuration not stated), the solubility (kinetic) was greater than 41.6 µg/mL.

With `N#Cc1c2c(c(NCCOCCO)n3c1nc1ccccc13)CCCC2`, the kinetic solubility is 27 µg/mL (≈ 77 µM). For `O=C(O)c1ccccc1NS(=O)(=O)c1cccc(NS(=O)(=O)c2cc(Br)ccc2Br)c1` the value was greater than 88.5 µg/mL. Molecule `O=[N+]([O-])c1ccc(SCCc2cc[nH+]cc2)cc1.[Cl-]` gave a kinetic solubility of 36.5 µg/mL. Regarding `O=C(Nc1ccc(F)cc1)c1ccc2nsnc2c1`, the kinetic solubility was found to be 5.4 µg/mL (≈ 19.8 µM). In turn, `Cc1ccc(C2NCCS2)cc1` (configuration not stated) displayed a solubility (kinetic) greater than 26.9 µg/mL.

Consider `O=C(COC(=O)[C@@H]1CCCN1C(=O)c1cccs1)Nc1cccc(Cl)c1`, for which the kinetic solubility is 26.9 µg/mL (≈ 68.5 µM).

In turn, `O=C(COC(=O)C(CO)NS(=O)(=O)c1ccc(Br)cc1)Nc1ccc2c(c1)OCCO2` (configuration not stated) had a solubility (kinetic) greater than 77.3 µg/mL. `O=C(CN1C(=O)c2ccccc2C1=O)NCc1ccc(C(=O)O)cc1` came in with a solubility (kinetic) greater than 50.7 µg/mL. `Cc1c(C(=O)N2CCc3ccccc3C2)oc2ccccc12` gave a kinetic solubility of 7.5 µg/mL (≈ 25.7 µM). Regarding `COc1ccc(C2CC(=O)C(C=NCCO)=C(O)C2)cc1` (configuration not stated), the solubility (kinetic) came out at 38 µg/mL (≈ 131 µM). `NC(=O)C1CCCN(CC(=O)N2CCN(c3ccccc3)CC2)C1` (configuration not stated) showed a solubility (kinetic) of 48.4 µg/mL (≈ 146 µM).

`CN(C(=O)CSc1nc2ccccc2c(=O)n1-c1ccccc1F)C1CCS(=O)(=O)C1` (configuration not stated): the kinetic solubility turned out to be 16.2 µg/mL (≈ 35.1 µM).

Molecule `COc1ccc(S(=O)(=O)Nc2cccnc2)c(Cl)c1Cl` registered a solubility (kinetic) of 21.5 µg/mL (≈ 64.5 µM). As to `O=C(CNC(=O)[C@@H]1Cc2ccccc2CN1)NCc1ccco1`, the kinetic solubility was greater than 47 µg/mL. `CC(C)N(Cc1ccccc1)C(=O)CN1c2cccc3cccc(c23)S1(=O)=O` registered a solubility (kinetic) of 11 µg/mL (≈ 27.9 µM). `COc1ccc(NC(=S)NCc2ccc3c(c2)OCO3)cc1` returned a solubility (kinetic) greater than 47.5 µg/mL.

The molecule `CCC(C(=O)Nc1ccc(C)cc1)c1ccccc1` (configuration not stated) showed a kinetic solubility of less than 0.5 µg/mL. Regarding `O=C(O)CCC(=O)N1CCc2c([nH]c3ccccc23)C1C(F)(F)F` (configuration not stated), the solubility (kinetic) is greater than 51 µg/mL. As to `CSc1ccc(S(=O)(=O)N2CCC(C(=O)NCc3ccccn3)CC2)cc1`, the kinetic solubility came to 49.9 µg/mL (≈ 123 µM).

Turning to `CCOC(=O)CNC(=O)c1cnc(Nc2ccccc2OC)c2ccccc12`, the solubility (kinetic) came out at 5.4 µg/mL (≈ 14.2 µM).

For the molecule `COC(=O)c1c(C)[nH]c(C(=O)C(C)OC(=O)C2CC2)c1C` (configuration not stated), the solubility (kinetic) worked out at 39.7 µg/mL (≈ 135 µM).

In turn, `O=C(OCCC1Oc2cccnc2NC1=O)c1ccc(F)cc1` (configuration not stated) displayed a kinetic solubility of 4.8 µg/mL (≈ 15.2 µM). Regarding `COc1ccc(NC(=S)NCc2ccc(Cl)cc2)c(OC)c1`, the solubility (kinetic) came to 28.3 µg/mL (≈ 84 µM). `CS(=O)(=O)Nc1ccc(C(=O)Nc2ccc3c(c2)OCO3)cc1` came in with a solubility (kinetic) of 6.2 µg/mL (≈ 18.5 µM). Molecule `CCOc1ccccc1N1C(=O)CC(=O)NC1=O` displayed a solubility (kinetic) greater than 37.2 µg/mL. In the case of `COc1ccccc1-n1c(/C=C/c2ccccn2)nc2ccccc2c1=O`, the kinetic solubility was determined as 7.3 µg/mL (≈ 20.5 µM). For `O=S(=O)(c1ccc2ccccc2c1)N1CCN(c2ccc(O)cc2)CC1` the value was 4.6 µg/mL (≈ 12.5 µM); for `CSc1ccc(C2N=C(c3ccccc3)NO2)cc1` (configuration not stated), 11.9 µg/mL (≈ 44 µM). Regarding `Cc1ccc(C2CCN(C(=S)NC3CCCCC3)C2)cc1` (configuration not stated), the solubility (kinetic) was 1.3 µg/mL (≈ 4.3 µM). In turn, `O=S(=O)(c1cc(F)ccc1F)N1CCN(c2ncccn2)CC1` registered a kinetic solubility of 46.9 µg/mL (≈ 138 µM). `Cc1cc(C)c(NC(=O)COC(=O)C2CCC2)c(Cl)c1` had a kinetic solubility of 42.2 µg/mL (≈ 143 µM). As to `CCOC(=O)Cc1csc(NC(=O)c2ccc([N+](=O)[O-])cc2[N+](=O)[O-])n1`, the kinetic solubility was greater than 57 µg/mL. In the case of `Cc1cccc(NC(=O)C(C)N2CC=C(c3ccccc3)CC2)c1` (configuration not stated), the solubility (kinetic) came out at 2.9 µg/mL (≈ 9.05 µM). `CN=C(C)/C(C(=O)OC)=C(/O)c1ccc(Cl)cc1Cl` displayed a solubility (kinetic) of 34 µg/mL (≈ 113 µM). In turn, `N#CC1(NC(=O)CSc2nnc3n2CCCCC3)CCCCC1` had a kinetic solubility greater than 50 µg/mL. In turn, `CC(=O)Nc1cc2c3c(c1)CCC(=O)N3CCC2` yielded a kinetic solubility greater than 36.6 µg/mL.

As to `O=C(CCCN1C(=O)c2cccc3cccc(c23)C1=O)NCc1ccco1`, the kinetic solubility stood at 1.5 µg/mL (≈ 4.14 µM). As to `COc1ccc(NC(=O)Nc2cccc3ccccc23)c(OC)c1`, the kinetic solubility was 0.5 µg/mL (≈ 1.55 µM). For `COC(=O)c1cnc(Nc2cccc(C(F)(F)F)c2)c([N+](=O)[O-])c1` the value was less than 0.2 µg/mL; for `Cc1ccc2c(c1)c1c3n2CCN(CCC(=O)O)C3CCC1` (configuration not stated), greater than 44.8 µg/mL.

`COc1ccccc1CNC(=O)c1cc(C(C)=O)c[nH]1`: the solubility (kinetic) was determined as 25.1 µg/mL (≈ 92.2 µM). `CC(NC(=O)C1CC1)C(c1cccs1)N1CCOCC1` (configuration not stated) returned a kinetic solubility greater than 44.2 µg/mL. For `CN(C)/C=C/C(=O)c1ccn(S(=O)(=O)c2ccccc2)c1` the value was greater than 45.7 µg/mL; for `O=C(Nc1cccc(-c2nc3ccccc3[nH]2)c1)c1ccccn1`, 6.2 µg/mL (≈ 19.7 µM). For `COc1ccc(C(=O)NCc2ccc3c(c2)CCO3)cc1`, the solubility (kinetic) turned out to be 32.5 µg/mL (≈ 115 µM). For `CN(C)/C=C/C(=O)c1ccc(C(F)(F)F)cc1F` the value was 35 µg/mL (≈ 134 µM). For the molecule `COc1ccccc1/C(C)=N/Oc1cc(N)cc([N+](=O)[O-])c1`, the solubility (kinetic) was determined as 1.7 µg/mL (≈ 5.64 µM). In turn, `NC(=O)COC(=O)c1sc2cc(F)ccc2c1Cl` displayed a solubility (kinetic) of 6.3 µg/mL (≈ 21.9 µM).

Molecule `COc1ccccc1OCCNC(=O)c1ccc2c(c1)CCC2` had a solubility (kinetic) of 42.2 µg/mL (≈ 136 µM). For `CN1CCCC(OC(=O)c2cc(F)c(F)c(F)c2F)C1.Cl` (configuration not stated), the solubility (kinetic) was 45.4 µg/mL.

Regarding `CC(C)(O)CNC(=O)Nc1ccc(Cl)c(Cl)c1`, the kinetic solubility came to 24.6 µg/mL (≈ 88.8 µM).

`N#Cc1cccc(C#N)c1NCC1CCCO1` (configuration not stated) had a kinetic solubility greater than 34.1 µg/mL.

In the case of `CN(Cc1ccccc1)S(=O)(=O)c1cn(C)cn1`, the solubility (kinetic) was greater than 39.8 µg/mL. Take `CCc1nnc(NC(=O)C2(C)COC(c3ccccc3)OC2)s1` (configuration not stated): the solubility (kinetic) is greater than 50 µg/mL.

As to `C/C(CC(C)C)=N\Oc1nc(C)cc(C)n1`, the solubility (kinetic) is greater than 33.2 µg/mL.

As for `O=C(Cn1cc(C(F)(F)F)ccc1=O)N1CCc2ccccc21`, the kinetic solubility stood at 25.2 µg/mL (≈ 78.2 µM). `Cc1ccc(NC(=O)C2=CC=CN3CCS(=O)(=O)N=C23)cc1` gave a kinetic solubility of 11.6 µg/mL (≈ 36.6 µM). For the molecule `Cc1cccc(C)c1N1C(=O)CC(N2CCSCC2)C1=O` (configuration not stated), the kinetic solubility is greater than 45.7 µg/mL. As for `CCN(CC)C(=O)c1cccc(NC(=O)C2=COCCO2)c1`, the kinetic solubility is greater than 45.7 µg/mL. In turn, `Cc1ccc(SCc2cn3cc(Cl)ccc3n2)cc1` registered a solubility (kinetic) of 2.9 µg/mL (≈ 10 µM). `CC(=O)Nc1cccc(C(=O)OCC(=O)Nc2ccc(Cl)cn2)c1` displayed a kinetic solubility of 6.9 µg/mL (≈ 19.8 µM). `C=CCc1cccc(CNc2cnc3ccccc3c2)c1O` yielded a kinetic solubility of less than 0.3 µg/mL. Molecule `COc1ccc(NC(=O)CCC(=O)N/N=C/c2cccnc2)cc1` displayed a solubility (kinetic) greater than 49 µg/mL. Take `Cn1nc(C(=O)NC2CCCC2)c2ccccc2c1=O`: the kinetic solubility is greater than 40.7 µg/mL. In turn, `C/C(N)=C(/C#N)C(=O)COC(=O)C1=NN(c2ccccc2)C(=O)CC1` showed a kinetic solubility greater than 51.1 µg/mL. Regarding `O=C(Cn1ccnc1)c1ccc(Cl)cc1`, the solubility (kinetic) was 31.5 µg/mL (≈ 143 µM). In turn, `Cc1oc2ccccc2c1CNC(=O)N(C)C` came in with a kinetic solubility greater than 34.8 µg/mL.

(Values after PubChem BioAssay AID1996.)
